Measurements from patent US6326386A, “Benzamide derivatives as thrombin inhibitors” (Glaxo Group Limited, priority 1995, dated 2001).

Biological target: T1, human α-thrombin (Homo sapiens, UniProt P00734)
T1 construct: human α-thrombin
Experiment: Inhibition of human α-thrombin in a chromogenic assay (N-p-tosyl-gly-pro-lys p-nitroanilide substrate)
Format: biochemical
Conditions: human α-thrombin 1 nM, substrate 100 μM, pH 7.4, room temperature, 405 nm; preincubation (zero or 15 mins) not given
Procedure: All dilutions were made in a buffer consisting of: 50 mM HEPES, 150 mM NaCl, 5 mM CaCl2, 0.1% PEG and at pH 7.4. Briefly, the substrate (final conc. of 100 μM) was added to thrombin (final conc. of 1 nM) and the reaction monitored for 10 mins at 405 nm using a Biotek EL340 plate reader; the assay was performed at room temperature. To obtain IC50 s the data were analyzed using Kineticalc® with a 4-parameter curve fitting procedure to obtain the IC50 value.
The compounds of the present invention are thrombin inhibitors. The results below illustrate the thrombin activity of a range of compounds of formula (I) using the previously described biological method: […]

SMILES	IC50 [nM]
O=C(c1cc(Cl)cc(OCCNc2ccncc2)c1)N(CCCCn1cncn1)C1CCCC1 [Example 92, 3-Chloro-N-cyclopentyl-5-[2-(pyridin-4-ylamino)-ethoxy]-N-(4-[1,2,4]triazol-1-yl-butyl)-benzamide]	15
O=C(c1cc(Cl)cc(OCCNc2ccncc2)c1)N(CCCN1CCOCC1)C1CCCC1 [Example 13, 3-Chloro-N-cyclopentyl-N-(3-morpholin-4-yl-propyl)-5-[2-(pyridin-4-ylamino)-ethoxy]-benzamide]	15
O=C(CCN(C(=O)c1cc(Cl)cc(OCCNc2ccncc2)c1)c1ccccc1)N1CCSCC1 [Example 49, 3-Chloro-N-(3-oxo-3-thiomorpholin-4-yl-propyl)-N-phenyl-5-[2-(pyridin-4-ylamino)-ethoxy]-benzamide]	38
NC(=O)CCN(CC1CC1)C(=O)c1cc(Cl)cc(OCCNc2ccncc2)c1 [Example 55, N-(2-Carbamoyl-ethyl)-3-chloro-N-cyclopropylmethyl-5-[2-(pyridin-4-ylamino)-ethoxy]-benzamide]	50
CC(C)N(CCc1noc(O)n1)C(=O)c1cc(Cl)cc(OCCNc2ccncc2)c1 [Example 109]	140
O=C(c1cc(Cl)cc(OCCNc2ccncc2)c1)N(CCCc1nnn[nH]1)c1ccccc1F [Example 40, 3-Chloro-N-(2-fluoro-phenyl)-5-[2-(pyridin-4-ylamino)-ethoxy]-N-[3-(1H-tetrazol-5-yl)-propyl]-benzamide]	9
COCCN(C(=O)c1cc(Cl)cc(OCCNc2ccncc2)c1)C(C)C [Example 99, 3-Chloro-N-isopropyl-N-(2-methoxy-ethyl)-5-[2-(pyridin-4-ylamino)-ethoxy]-benzamide]	40
CCCN(C(=O)c1cc(Cl)cc(OCCNc2ccncc2)c1)c1cc(F)cc(F)c1 [Example 29, 3-Chloro-N-(3,5-difluoro-phenyl)-N-propyl-5-[2-(pyridin-4-ylamino)-ethoxy]-benzamide]	62
O=C(c1cc(Cl)cc(OCCNc2ccncc2)c1)N(CCOCC(O)CO)c1ccccc1 (stereo not drawn) [Example 41, 3-Chloro-N-[2-(2,3-dihydroxy-propoxy)-ethyl]-N-phenyl-5-[2-(pyridin-4-ylamino)-ethoxy]-benzamide]	28
O=C(c1cc(Cl)cc(OCCNc2ccncc2)c1)N(CCCn1cncn1)c1ccc(F)cc1 [Example 90, 3-Chloro-N-(4-fluoro-phenyl)-5-[2-(pyridin-4-ylamino)-ethoxy]-N-(3-[1,2,4]triazol-1-yl-propyl)-benzamide]	22
CCOC(=O)CCCN(C(=O)c1cc(Cl)cc(OCCNc2ccncc2)c1)C1CCCC1 [Example 17, 4-({3-Chloro-5-[2-(pyridin-4-ylamino)-ethoxy]-benzoyl}-cyclopentyl-amino)-butyric acid ethyl ester]	14
CC(C)N(CCCNS(C)(=O)=O)C(=O)c1cc(Cl)cc(OCCNc2ccncc2)c1 [Example 72, 3-Chloro-N-isopropyl-N-(3-methanesulfonylamino-propyl)-5-[2-(pyridin-4-ylamino)-ethoxy]-benzamide]	63
O=C(CCCN(C(=O)c1cc(Cl)cc(OCCNc2ccncc2)c1)C1CCCC1)N1CCCC1 [Example 20, 3-Chloro-N-cyclopentyl-N-(4-oxo-4-pyrrolidin-1-yl-butyl)-5-[2-(pyridin-4-ylamino)-ethoxy]-benzamide]	9

The remaining compounds from weak to strong by IC50, led by results:

IC50 [nM]	SMILES
107	CC(C)N(CCC(N)=O)C(=O)c1cc(Cl)cc(OCCNc2ccncc2)c1 [Example 58, N-(2-Carbamoyl-ethyl)-3-chloro-N-isopropyl-5-[2-(pyridin-4-ylamino)-ethoxy]-benzamide]
91	NC(=O)CCCCCN(Cc1ccco1)C(=O)c1cc(Cl)cc(OCCNc2ccncc2)c1 [Example 138, N-(5-Carbamoyl-pentyl)-3-chloro-N-furan-2-ylmethyl-5-[2-(pyridin-4-ylamino)-ethoxy]-benzamide]
61	CC(C)(C)NC(=O)CCN(C(=O)c1cc(Cl)cc(OCCNc2ccncc2)c1)c1ccccc1 [Example 47, N-(2-tert-Butylcarbamoyl-ethyl)-3-chloro-N-phenyl-5-[2-(pyridin-4-ylamino)ethoxy]-benzamide]
41	O=C(O)CCCN(C(=O)c1cc(Cl)cc(OCCNc2ccncc2)c1)C1CCC1 [Example 128, 4-({3-Chloro-5-[2-(pyridin-4-ylamino)-ethoxy]-benzol}-cyclobutyl-amino)-butyric acid]
34	O=C(c1cc(Cl)cc(OCCNc2ccncc2)c1)N(CCn1cncn1)C1CCCC1 [Example 91, 3-Chloro-N-cyclopentyl-5-[2-(pyridin-4-ylamino)-ethoxy]-N-(2-[1,2,4]triazol-1-yl-ethyl)-benzamide]
28	O=C(O)CCCCCN(CC1CCCCC1)C(=O)c1cc(Cl)cc(OCCNc2ccncc2)c1 [Example 124, 6-({3-Chloro-5-[2-(pyridin-4-ylamino)-ethoxy]-benzoyl}-cyclohexylmethyl-amino)-hexanoic acid]
17	O=C(CCCN(C(=O)c1cc(Cl)cc(OCCNc2ccncc2)c1)c1ccccc1F)N1CCCC1 [Example 37, 3-Chloro-N-(2-fluoro-phenyl)-N-(4-oxo-4-pyrrolidin-1-yl-butyl)-5-[2-(pyridin-4-ylamino)-ethoxy]-benzamide]
10	CC(C)CN(Cc1ccc(C(=O)O)cc1)C(=O)c1cc(Cl)cc(OCCNc2ccncc2)c1 [Example 118, 4-[({3-Chloro-5-[2-(pyridin-4-ylamino)-ethoxy]-benzoyl}-isobutyl-amino)-methyl]-benzoic acid]
8	Cc1cc(OCCNc2ccncc2)cc(C(=O)N(C)C2CCCCC2)c1 [Example 1, N-Cyclohexyl-3, N-dimethyl-5-[2-(pyridin-4-ylamino)-ethoxy]-benzamide]
7	O=C(c1cc(Cl)cc(OCCNc2ccncc2)c1)N(CCCO)C1CCCC1 [Example 9, 3-Chloro-N-cyclopentyl-N-(3-hydroxy-propyl)-5-[2-(pyridin-4-ylamino)-ethoxy]-benzamide]
5	C=CCN(C(=O)c1cc(Cl)cc(OCCNc2ccncc2)c1)C1CCCC1 [Example 6, N-Allyl-3-chloro-N-cyclopentyl-5-[2-(pyridin-4-ylamino)-ethoxy]-benzamide]
